According to ChEMBL document CHEMBL1130091, “Synthesis and cytotoxic evaluation of substituted sulfonyl-N-hydroxyguanidine derivatives as potential antitumor agents” (J Med Chem, 1997):
Converted amounts (≈) assume the structure as drawn.

What was measured:
MOLT-4 [1] = test: Cytotoxic Activity against human tumor MOLT-4 cell line; type: functional, cell-based
HepG2 = test: Cytotoxic activity against human tumor HepG2 cell line; type: functional, cell-based
COLO 205 = test: Cytotoxic activity against human tumor COLO 205 cell line; type: functional, cell-based
KB = test: Cytotoxic activity against human tumor KB cell line; type: functional, cell-based
TSGH 8302 = test: Cytotoxic activity against human tumor TSGH 8302 cell line; type: functional, cell-based
MOLT-4 [2] = test: Cytotoxic Activity against human tumor MOLT-4 cell line with 20 micro g/mL; type: functional
Mus musculus [3] = test: Antitumor activity against Murine K1735/M2 Melanoma xenograft expressed as body weight change from day 0 to 20 in mice at dose of 300 mg/kg oral administration; type: functional
Mus musculus [4] = test: Tumor growth inhibition determined at day 20 after tumor transplantation in mice at dose of 300 mg/kg oral administration; type: functional; settings: 480 h

O=S(=O)(N/C(=N\O)Nc1ccc(Cl)cc1)c1cc(C(F)(F)F)cc(C(F)(F)F)c1
IC50 (MOLT-4 [1]): 44 µg/mL (≈ 95.3 µM) | IC50 (HepG2): 233 µg/mL (≈ 505 µM) | IC50 (COLO 205): 58 µg/mL (≈ 126 µM) | IC50 (KB): 57 µg/mL (≈ 123 µM) | IC50 (TSGH 8302): 66 µg/mL (≈ 143 µM)

O=S(=O)(NC(=S)Nc1ccc(Cl)cc1)c1ccccc1
IC50 (HepG2): > 300 µg/mL | IC50 (COLO 205): 91 µg/mL (≈ 278 µM) | IC50 (KB): 66 µg/mL (≈ 202 µM) | Inhibition (MOLT-4 [2]): 63% | IC50 (TSGH 8302): > 300 µg/mL

O=S(=O)(N/C(=N\O)Nc1ccc(Cl)cc1)c1ccccc1
IC50 (MOLT-4 [1]): 7 µg/mL (≈ 21.5 µM) | IC50 (HepG2): 54 µg/mL (≈ 166 µM) | IC50 (COLO 205): 53 µg/mL (≈ 163 µM) | IC50 (KB): 46 µg/mL (≈ 141 µM) | IC50 (TSGH 8302): 52 µg/mL (≈ 160 µM)

Cc1ccc(S(=O)(=O)N/C(=N\O)Nc2ccc(Cl)c(Cl)c2)cc1
IC50 (MOLT-4 [1]): 7 µg/mL (≈ 18.7 µM) | IC50 (HepG2): 72 µg/mL (≈ 192 µM) | IC50 (COLO 205): 10 µg/mL (≈ 26.7 µM) | IC50 (KB): 8 µg/mL (≈ 21.4 µM) | IC50 (TSGH 8302): 67 µg/mL (≈ 179 µM)

O=[N+]([O-])c1cccc(Cl)c1Oc1ccc(S(=O)(=O)N/C(=N\O)Nc2ccc(Cl)cc2)cc1
IC50 (HepG2): > 100 µg/mL | IC50 (COLO 205): > 100 µg/mL | IC50 (KB): 83 µg/mL (≈ 167 µM) | IC50 (TSGH 8302): 53 µg/mL (≈ 107 µM)

O=S(=O)(N/C(=N\O)Nc1ccc(Cl)cc1)c1ccc(-c2cccs2)cn1
IC50 (MOLT-4 [1]): 75 µg/mL (≈ 183 µM) | IC50 (HepG2): 121 µg/mL (≈ 296 µM) | IC50 (COLO 205): 74 µg/mL (≈ 181 µM) | IC50 (KB): 61 µg/mL (≈ 149 µM) | IC50 (TSGH 8302): 208 µg/mL (≈ 509 µM)

O=S(=O)(N/C(=N\O)Nc1ccc(Cl)cc1)c1cc(-c2ccsc2)no1
IC50 (MOLT-4 [1]): 9 µg/mL (≈ 22.6 µM) | IC50 (HepG2): > 300 µg/mL | IC50 (COLO 205): 52 µg/mL (≈ 130 µM) | IC50 (KB): 55 µg/mL (≈ 138 µM) | IC50 (TSGH 8302): 149 µg/mL (≈ 374 µM)

Cc1ccc(S(=O)(=O)/N=C(\S)Nc2ccc(Cl)c(Cl)c2)cc1
IC50 (HepG2): 120 µg/mL (≈ 320 µM) | IC50 (COLO 205): 45 µg/mL (≈ 120 µM) | IC50 (KB): 41 µg/mL (≈ 109 µM) | Inhibition (MOLT-4 [2]): 39% | IC50 (TSGH 8302): 55 µg/mL (≈ 147 µM)

O=S(=O)(N/C(=N\O)Nc1ccc(Cl)cc1)c1ccc(S(=O)(=O)c2ccccc2)s1
IC50 (HepG2): 92 µg/mL (≈ 195 µM) | IC50 (COLO 205): 59 µg/mL (≈ 125 µM) | IC50 (KB): 29 µg/mL (≈ 61.4 µM) | IC50 (TSGH 8302): 41 µg/mL (≈ 86.9 µM)

Cc1ccc(S(=O)(=O)N/C(=N\O)Nc2ccc(Cl)cc2)cc1
IC50 (MOLT-4 [1]): 6 µg/mL (≈ 17.7 µM) | IC50 (HepG2): 49 µg/mL (≈ 144 µM) | IC50 (COLO 205): 58 µg/mL (≈ 171 µM) | IC50 (KB): 46 µg/mL (≈ 135 µM) | IC50 (TSGH 8302): 46 µg/mL (≈ 135 µM)

O=S(=O)(N/C(=N\O)Nc1ccc(Cl)cc1)c1cc2ccccc2o1
IC50 (HepG2): > 200 µg/mL | IC50 (COLO 205): > 200 µg/mL | IC50 (KB): 67 µg/mL (≈ 183 µM)

Cc1ccc(S(=O)(=O)/N=C(\S)Nc2ccc(Cl)cc2)cc1
IC50 (HepG2): 232 µg/mL (≈ 681 µM) | IC50 (COLO 205): 87 µg/mL (≈ 255 µM) | IC50 (KB): 80 µg/mL (≈ 235 µM) | Inhibition (MOLT-4 [2]): 59% | IC50 (TSGH 8302): 125 µg/mL (≈ 367 µM)

O=S(=O)(NC(=S)Nc1ccc(Cl)cc1)c1cccc2snnc12
IC50 (HepG2): 124 µg/mL (≈ 322 µM) | IC50 (COLO 205): 50 µg/mL (≈ 130 µM) | IC50 (KB): 63 µg/mL (≈ 164 µM) | Inhibition (MOLT-4 [2]): 55% | IC50 (TSGH 8302): 42 µg/mL (≈ 109 µM)

Cc1c(S(=O)(=O)/N=C(\S)Nc2ccc(Cl)c(Cl)c2)sc2ccc(Cl)cc12
IC50 (HepG2): 62 µg/mL (≈ 133 µM) | IC50 (COLO 205): 57 µg/mL (≈ 122 µM) | IC50 (KB): 25 µg/mL (≈ 53.7 µM) | Inhibition (MOLT-4 [2]): 65% | IC50 (TSGH 8302): 59 µg/mL (≈ 127 µM)

O=S(=O)(N/C(=N\O)Nc1ccc(Cl)cc1)c1cc2ccccc2s1
IC50 (MOLT-4 [1]): 57 µg/mL (≈ 149 µM) | IC50 (HepG2): 176 µg/mL (≈ 461 µM) | IC50 (COLO 205): 80 µg/mL (≈ 209 µM) | IC50 (KB): 55 µg/mL (≈ 144 µM) | IC50 (TSGH 8302): 76 µg/mL (≈ 199 µM)

Cc1ccc(S(=O)(=O)NC(=O)Nc2ccc(Cl)cc2)cc1 [LY-181984]
IC50 (HepG2): > 300 µg/mL | IC50 (COLO 205): 83 µg/mL (≈ 256 µM) | Body weight change (Mus musculus [3]): -1.2 g | IC50 (KB): 72 µg/mL (≈ 222 µM) | Inhibition (MOLT-4 [2]): 33% | IC50 (TSGH 8302): 106 µg/mL (≈ 326 µM) | inhibition in vivo at 300 mg/kg (Mus musculus [4]): 64.7%

O=S(=O)(NC(=S)Nc1ccc(Cl)cc1)c1cc(S(=O)(=O)c2ccccc2)cs1
IC50 (HepG2): 214 µg/mL (≈ 452 µM) | IC50 (COLO 205): 220 µg/mL (≈ 465 µM) | IC50 (KB): 196 µg/mL (≈ 414 µM) | IC50 (TSGH 8302): 217 µg/mL (≈ 459 µM)

O=[N+]([O-])c1ccc(Oc2c(Cl)cc(S(=O)(=O)N/C(=N\O)Nc3ccc(Cl)cc3)cc2Cl)cc1
IC50 (MOLT-4 [1]): 55 µg/mL (≈ 103 µM) | IC50 (HepG2): 22 µg/mL (≈ 41.4 µM) | IC50 (COLO 205): 12 µg/mL (≈ 22.6 µM) | IC50 (KB): 12 µg/mL (≈ 22.6 µM) | IC50 (TSGH 8302): 7 µg/mL (≈ 13.2 µM)

O=S(=O)(N/C(=N\O)Nc1ccc(Cl)cc1)c1cc(S(=O)(=O)c2ccccc2)cs1
IC50 (MOLT-4 [1]): 22 µg/mL (≈ 46.6 µM) | IC50 (HepG2): 175 µg/mL (≈ 371 µM) | IC50 (COLO 205): 45 µg/mL (≈ 95.3 µM) | IC50 (KB): 10 µg/mL (≈ 21.2 µM) | IC50 (TSGH 8302): 37 µg/mL (≈ 78.4 µM)

O=[N+]([O-])c1ccc(Oc2c(Cl)cc(S(=O)(=O)N/C(=N\O)Nc3ccc(Cl)cc3)cc2Cl)c(Cl)c1
IC50 (MOLT-4 [1]): 56 µg/mL (≈ 98.9 µM) | IC50 (HepG2): 49 µg/mL (≈ 86.5 µM) | IC50 (COLO 205): 6 µg/mL (≈ 10.6 µM) | Body weight change (Mus musculus [3]): 1.3 g | IC50 (KB): 7 µg/mL (≈ 12.4 µM) | IC50 (TSGH 8302): 7 µg/mL (≈ 12.4 µM) | inhibition in vivo at 300 mg/kg (Mus musculus [4]): 70.7%

O=S(=O)(N/C(=N\O)Nc1ccc(Cl)cc1)c1cccc2snnc12
IC50 (MOLT-4 [1]): 33 µg/mL (≈ 86 µM) | IC50 (HepG2): 45 µg/mL (≈ 117 µM) | IC50 (COLO 205): 87 µg/mL (≈ 227 µM) | IC50 (KB): 35 µg/mL (≈ 91.2 µM) | IC50 (TSGH 8302): 93 µg/mL (≈ 242 µM)

Cc1c(S(=O)(=O)/N=C(\S)Nc2ccc(Cl)cc2)sc2ccc(Cl)cc12
IC50 (HepG2): 57 µg/mL (≈ 132 µM) | IC50 (COLO 205): 52 µg/mL (≈ 121 µM) | IC50 (KB): 61 µg/mL (≈ 141 µM) | Inhibition (MOLT-4 [2]): 12% | IC50 (TSGH 8302): 55 µg/mL (≈ 127 µM)

O=S(=O)(NC(=S)Nc1ccc(Cl)cc1)c1ccc(S(=O)(=O)c2ccccc2)s1
IC50 (HepG2): 216 µg/mL (≈ 457 µM) | IC50 (COLO 205): 65 µg/mL (≈ 137 µM) | IC50 (KB): 66 µg/mL (≈ 140 µM) | Inhibition (MOLT-4 [2]): 59% | IC50 (TSGH 8302): 79 µg/mL (≈ 167 µM)

Cc1c(S(=O)(=O)N/C(=N\O)Nc2ccc(Cl)c(Cl)c2)sc2ccc(Cl)cc12
IC50 (MOLT-4 [1]): > 300 µg/mL | IC50 (HepG2): > 300 µg/mL | IC50 (COLO 205): > 300 µg/mL | IC50 (KB): > 300 µg/mL | IC50 (TSGH 8302): > 300 µg/mL

Cc1c(S(=O)(=O)N/C(=N\O)Nc2ccc(Cl)cc2)sc2ccc(Cl)cc12
IC50 (MOLT-4 [1]): 38 µg/mL (≈ 88.3 µM) | IC50 (HepG2): 140 µg/mL (≈ 325 µM) | IC50 (COLO 205): 60 µg/mL (≈ 139 µM) | IC50 (KB): 29 µg/mL (≈ 67.4 µM) | IC50 (TSGH 8302): 44 µg/mL (≈ 102 µM)

CCCCOc1ccc(S(=O)(=O)N/C(=N\O)Nc2ccc(Cl)cc2)cc1
IC50 (MOLT-4 [1]): 18 µg/mL (≈ 45.2 µM) | IC50 (HepG2): 63 µg/mL (≈ 158 µM) | IC50 (COLO 205): 49 µg/mL (≈ 123 µM) | IC50 (KB): 50 µg/mL (≈ 126 µM) | IC50 (TSGH 8302): 37 µg/mL (≈ 93 µM)

N#Cc1c(Cl)cccc1Oc1ccc(S(=O)(=O)N/C(=N\O)Nc2ccc(Cl)cc2)cc1
IC50 (MOLT-4 [1]): 95 µg/mL (≈ 199 µM) | IC50 (HepG2): > 300 µg/mL | IC50 (COLO 205): 178 µg/mL (≈ 373 µM) | IC50 (KB): 39 µg/mL (≈ 81.7 µM) | IC50 (TSGH 8302): 168 µg/mL (≈ 352 µM)
